Assays:
Format in all cases: physicochemical
[1] = MEKC lipophilicity (SDS micelles, pH 7.4); conditions: 50 mM SDS, HEPES/TRIS buffer pH 7.4, 25 °C
Description: All MEKC experiments were carried out with a P/ACE MDQ plus system (Sciex, Framingham, MA, USA) equipped with photodiode array detector (PDA) and controlled by 32 Karat software (version 10.2). The uncoated fused silica capillaries (50 µm i.d., Polymicro Technologies, West Yorkshire, UK) of 60 cm total length and 50.2 cm effective length were used. Prior to analysis, the capillary was rinsed with 0.1 M NaOH for 30 min, ultrapure water for 10 min, and background electrolyte (BGE) for 30 min. After each analysis, the capillary was conditioned with BGE for 2 min. The applied pressure for all rinsing operations was 345 kPa. The analytes were dissolved in BGE at concentration of 100 µg/mL with addition of quinine (micelles marker). As electroosmotic flow (EOF) marker, DMSO was used. The samples were hydrodynamically injected at 35 kPa for 5 s. The separations were performed by applying voltage of 20 kV with positive polarity and constant temperatures at 25 ± 0.1 °C. The BGE consisted of aqueous solution of 50 mM SDS and 120 mM HEPES /100 mM TRIS buffer of pH 7.4. The BGE was prepared each working day by dilution of stock solution. Detection was carried out at 200 and 280 nm with 8 Hz probing frequency. The logarithm of retention factor logk was calculated according to the equation introduced by Terabe and co-workers:(10) logkMEKC=log(tR−tEOF/tEOF(1−tR/tMC)) The established logk parameters are summarized in Table 2.

[2] = RP-TLC lipophilicity, silica gel C8, methanol-water; conditions: for C 0: RP-TLC silica gel C8, C0 = −RM^0/b; for PC1: RP-TLC silica gel C8, first principal component of RM values, contains 83.57% of information; for mRM: RP-TLC silica gel C8, mean value of RM; for R M ^0: RP-TLC silica gel C8, methanol-water 30 to 70% (v/v), intercept of Soczewiński–Wachtmeister equation; for b: RP-TLC silica gel C8, slope of Soczewiński–Wachtmeister equation
Description: (§1) The ready-to-use TLC glass plates covered by octadecyl(C18)- and octyl(C8)-modified TLC silica layers were purchased from Merck (Darmstadt, Germany). Stock solutions (5 µL) of the analytes were spotted manually on the plates with the use of a micropipette from Brand (Wertheim, Germany). The mobile phases were prepared by mixing appropriate volumes of pure organic solvents and water (in step gradient by 10% (v/v)), in the following proportions: (a) methanol–water ranging from 30 to 70% (v/v), in the case of C8-bonded silica gel stationary phase; and (b) methanol–water ranging from 40 to 70% (v/v), in the case of C18-bonded silica gel stationary phase.
(§2) Before analysis, the chromatographic chamber (Twin Trough Chambers from CAMAG Philadelphia, USA) was saturated for 20 min. All TLC experiments were performed at room temperature (22 ± 2 °C). Chromatograms were developed using the ascending technique to a distance of 8 cm. The investigated substances were visualized under UV light at λ = 366 nm by CAMAG UV Lamp 4 and the Viewing Box 4 (Philadelphia, USA). […] The obtained retardation factors (RF) were collected in the Supplementary data sheets. The retention parameter, RM, was calculated for each compound according to the Bate-Smith and Westall formula: (7) RM=log(1/RF−1) and listed in Table S2. Next, the Soczewiński–Wachtmeister’s equation: RM = RM^0 + bC(8) was used in order to determine the basic lipophilic RP-TLC parameter RM^0 as well as commonly used hydrophobic constants m. Soczewiński–Wachtmeister’s equation presented a linear relationship between concentration of the organic solvent in mobile phase (C) and RM value. Moreover, mean value of RM was used for lipophilicity assessments.
(§3) Furthermore, C0 RP-TLC lipophilicity parameter, introduced by Bieganowska, has been calculated according to the formula:(9) C0=−RM^0/b.
(§4) The C0 parameter corresponds to the parameter φ0, previously proposed for the HPLC. This parameter relates to the concentration of the organic component in the mobile phase for which the distribution of the analyzed substance between the mobile and stationary phase is equal (1:1).
(§5) Also, the principal component analysis (PCA) was applied in order to extract information regarding the lipophilicity of solutes and formulate them as the first principal component (PC1). Calculation data matrixes included RM values of solutes for each modifier concentration in the mobile phase.

[3] = RP-TLC lipophilicity, silica gel C18, methanol-water; conditions: for C 0: RP-TLC silica gel C18, C0 = −RM^0/b; for PC1: RP-TLC silica gel C18, first principal component of RM values, contains 86.92% of information; for mRM: RP-TLC silica gel C18, mean value of RM; for R M ^0: RP-TLC silica gel C18, methanol-water 40 to 70% (v/v), intercept of Soczewiński–Wachtmeister equation; for b: RP-TLC silica gel C18, slope of Soczewiński–Wachtmeister equation
Description: as §1, §2, §3, §4, §5

logk [1]	C 0 [2]	PC1 [2]	mRM [2]	R M ^0 [2]	b [2]	C 0 [3]	PC1 [3]	mRM [3]	R M ^0 [3]	b [3]	SMILES
−0.104	1.04	−2.23	1.03	1.99	−1.92	1.21	0.72	0.96	1.65	−1.36	CCn1cc(C(=O)O)c(=O)c2cc(F)c(N3CC[N+]4(CC3)CN3C(=N4)C(C(=O)O)=Cc4ccccc43)cc21.[Cl-] [Compound 1]
−0.265	1.04	−1.69	0.98	1.90	−1.83	0.93	0.88	0.94	2.29	−2.45	CCn1cc(C(=O)O)c(=O)c2cc(F)c(N3CC[N+]4(CN5C(=N4)C(C(=O)O)=Cc4ccccc45)C(C)C3)c(F)c21.[Cl-] (stereo not drawn) [Compound 5]
–	2.35	−1.73	1.04	1.32	−0.56	1.23	0.53	0.98	1.78	−1.45	CCn1cc(C(=O)O)c(=O)c2cnc(N3CC[N+]4(CC3)CN3C(=N4)C(C(=O)O)=Cc4ccccc43)nc21.[Cl-] [Compound 6]
−0.239	1.23	−2.01	1.05	1.76	−1.43	1.17	0.48	0.99	1.87	−1.60	CCn1cc(C(=O)O)c(=O)c2cc(F)c(N3CC[N+]4(CC3)CN3C(=N4)C(C(=O)O)=Cc4ccccc43)nc21.[Cl-] [Compound 7]
−0.153	1.09	−1.26	0.93	1.71	−1.56	1.07	1.18	0.89	1.83	−1.71	O=C(O)C1=Cc2ccccc2N2C[N+]3(CCN(c4cc5c(cc4F)c(=O)c(C(=O)O)cn5C4CC4)CC3)N=C12.[Cl-] [Compound 8]
–	1.28	0.79	0.71	1.16	−0.91	1.22	2.53	0.70	1.27	−1.04	CCn1cc(C(=O)O)c(=O)c2cnc(N3CC[N+]4(CC3)CN3C(C)=CC(C)=C(C(=O)O)C3=N4)nc21.[Cl-] [Compound 10]
−0.398	1.06	−0.54	0.84	1.59	−1.50	1.08	1.51	0.84	1.72	−1.59	CCn1cc(C(=O)O)c(=O)c2cc(F)c(N3CC[N+]4(CC3)CN3C(C)=CC(C)=C(C(=O)O)C3=N4)nc21.[Cl-] [Compound 11]

Second part, the compound before the results:

SMILES	logk [1]	C 0 [2]	PC1 [2]	mRM [2]	R M ^0 [2]	b [2]	C 0 [3]	PC1 [3]	mRM [3]	R M ^0 [3]	b [3]
COc1c(N2CC[N+]3(CN4C(=N3)C(C(=O)O)=Cc3ccccc34)C(C)C2)c(F)cc2c(=O)c(C(=O)O)cn(C3CC3)c12.[Cl-] (stereo not drawn) [Compound 2]	−0.125	0.89	−2.22	1.01	2.31	−2.61	0.84	0.81	0.95	2.78	−3.31
CC1CN(c2c(F)c(N)c3c(=O)c(C(=O)O)cn(C4CC4)c3c2F)CC(C)[N+]12CN1C(=N2)C(C(=O)O)=Cc2ccccc21.[Cl-] (stereo not drawn) [Compound 3]	−0.070	0.86	−3.48	1.15	2.74	−3.17	0.88	0.34	1.02	2.75	−3.13
CC1=CC(C)=C(C(=O)O)C2=N[N+]3(CCN(c4cc5c(cc4F)c(=O)c(C(=O)O)cn5C4CC4)CC3)CN12.[Cl-] [Compound 4]	−0.321	0.94	−0.58	0.84	1.79	−1.90	0.94	2.36	0.72	1.74	−1.85
CCn1cc(C(=O)O)c(=O)c2cc(F)c(N3CC[N+]4(CN5C(C)=CC(C)=C(C(=O)O)C5=N4)C(C)C3)c(F)c21.[Cl-] (stereo not drawn) [Compound 9]	−0.479	0.97	−0.11	0.79	1.62	−1.66	0.98	1.75	0.81	1.86	−1.91
CCn1cc(C(=O)O)c(=O)c2cc(F)c(N3CC[N+]4(CC3)CN3C(C)=CC(C)=C(C(=O)O)C3=N4)cc21.[Cl-] [Compound 12]	−0.272	1.00	−0.38	0.82	1.63	−1.63	1.00	1.97	0.78	1.75	−1.75
COc1c(N2CC[N+]3(CN4C(C)=CC(C)=C(C(=O)O)C4=N3)C(C)C2)c(F)cc2c(=O)c(C(=O)O)cn(C3CC3)c12.[Cl-] (stereo not drawn) [Compound 13]	−0.408	0.92	−0.64	0.83	1.82	−1.97	0.88	1.74	0.82	2.18	−2.47
CC1=CC(C)=C(C(=O)O)C2=N[N+]3(CN12)C(C)CN(c1c(F)c(N)c2c(=O)c(C(=O)O)cn(C4CC4)c2c1F)CC3C.[Cl-] (stereo not drawn) [Compound 14]	−0.261	0.86	−1.79	0.96	2.29	−2.66	0.86	1.32	0.88	2.45	−2.84
O=C(O)c1cn(C2CC2)c2cc(N3CCNCC3)c(F)cc2c1=O [Compound 22, ciprofloxacin, reference compound]	–	1.61	−5.04	1.41	2.04	−1.27	1.30	−3.88	1.62	2.79	−2.15

— PMC6862250, “Lipophilicity Determination of Quaternary (Fluoro)Quinolones by Chromatographic and Theoretical Approaches” (International Journal of Molecular Sciences, 2019)
